# Data taken from publication PMC8770514, “Induction of CTH expression in response to amino acid starvation confers resistance to anti-LAT1 therapy in MDA-MB-231 cells” (Scientific Reports, 2022).
# Molecular target: T1, L type amino acid transporter 1 (LAT1) (Homo sapiens, UniProt Q01650)
# T1 construct: gene SLC7A5; with 4F2 heavy chain (4F2hc)
# Experiment: inhibition of […] L-leucine uptake ([…] min, […] °C) in MDA-MB-231 cells (endogenous LAT1); […] in T-47D cells
# Format: cell-based
# T1 sequence (Q01650 whole entry): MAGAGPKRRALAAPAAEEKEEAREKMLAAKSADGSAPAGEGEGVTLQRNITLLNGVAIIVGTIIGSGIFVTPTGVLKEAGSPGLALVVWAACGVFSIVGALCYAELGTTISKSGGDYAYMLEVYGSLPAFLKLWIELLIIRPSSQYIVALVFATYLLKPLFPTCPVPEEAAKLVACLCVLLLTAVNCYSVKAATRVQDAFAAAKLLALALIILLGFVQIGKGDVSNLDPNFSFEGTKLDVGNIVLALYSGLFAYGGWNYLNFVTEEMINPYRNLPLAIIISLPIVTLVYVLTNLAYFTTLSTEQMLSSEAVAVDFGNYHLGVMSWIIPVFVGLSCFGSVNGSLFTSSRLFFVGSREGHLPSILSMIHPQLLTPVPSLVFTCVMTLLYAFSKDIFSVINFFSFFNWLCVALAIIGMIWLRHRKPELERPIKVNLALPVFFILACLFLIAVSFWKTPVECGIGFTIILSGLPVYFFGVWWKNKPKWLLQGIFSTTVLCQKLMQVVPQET
# T1 sequence (P08195 103-630 partner): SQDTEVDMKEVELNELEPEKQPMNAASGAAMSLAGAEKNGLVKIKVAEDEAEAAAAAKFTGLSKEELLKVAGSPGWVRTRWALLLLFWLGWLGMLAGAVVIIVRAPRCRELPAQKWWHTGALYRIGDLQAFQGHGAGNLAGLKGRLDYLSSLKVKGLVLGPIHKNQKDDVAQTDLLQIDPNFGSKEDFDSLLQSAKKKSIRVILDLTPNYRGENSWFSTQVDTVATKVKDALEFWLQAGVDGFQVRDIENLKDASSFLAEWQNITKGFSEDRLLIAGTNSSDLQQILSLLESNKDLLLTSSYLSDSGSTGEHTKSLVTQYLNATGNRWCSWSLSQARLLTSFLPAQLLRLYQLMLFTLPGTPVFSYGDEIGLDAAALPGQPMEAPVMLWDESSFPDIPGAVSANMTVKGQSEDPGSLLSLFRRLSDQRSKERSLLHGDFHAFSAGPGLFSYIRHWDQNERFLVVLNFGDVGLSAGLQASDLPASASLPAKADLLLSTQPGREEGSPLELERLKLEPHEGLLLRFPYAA
smiles,measurement,value
"Nc1cc(COc2c(Cl)cc(C[C@H](N)C(=O)O)cc2Cl)c2oc(-c3ccccc3)nc2c1 [JPH203, (S)-2-amino-3-(4-((5-amino-2-phenylbenzo[d]oxazol-7-yl)methoxy)-3,5-dichlorophenyl)-propanoic acid]",IC50,60 ± 20 nM
